In patent US9034391B2, “Compositions with enhanced bioavailability and fast acting inhibitor or gastric acid secretion” (YALE UNIVERSITY, priority 2006, dated 2015):
Several values for one entry are separate records, joined by “and”; a condition that tells them apart may be missing. Equal values may be shown once. Entries after “also recorded” stand apart in the source; their conditions may differ.

Columns and labels:
H+,K+-ATPase [1] = biological target: T1, H+,K+-ATPase (Rattus norvegicus, UniProt P09626); assay: Intracellular pH recovery in rat corpus glands (fundus/corpus comparison); assay type: cell-based; conditions: corpus glands
T1 construct: Individual glands were isolated using a hand-dissection technique as described previously; from tissue; host or cells: hand-dissected rat gastric glands (corpus and antrum), parietal cells
Protocol: Molecular Probes, OR USA)) for 15 minutes. […] Measurements were performed in the epifluorescence mode with 60×/0.80 and 40×/0.90 objectives. […] Data points were acquired every 15 s. […] Acid extrusion was monitored in the absence of bicarbonate. […] All data are summarized as mean±S.E. Significance was determined using the one-way ANOVA test with p<0.05 considered to be statistically significant. All chemicals used were obtained from Sigma and Molecular Probes.

fundic H+,K+-ATPase = biological target: T2, fundic H+,K+-ATPase (Rattus norvegicus, UniProt P09626); assay: Intracellular pH recovery in isolated rat fundic (F1) glands; assay type: cell-based; conditions: for effect on fundic (F1) acid secretion (in words): histamine 100 μM
T2 construct: Glands adjacent to the esophageal junction were hand dissected; from tissue; host or cells: hand-dissected fundic glands of Sprague Dawley rat stomach, next to the esophageal junction
Protocol: Male Sprague Dawley rats weighing 200-300 g were housed in climate and humidity controlled, light cycled rooms and fed standard chow with free access to water. Prior to experiments, animals were fasted while allowing free access to water for 18-24 hours to reduce basal acid secretion. Following isoflurane anesthesia the animals were sacrificed, an abdominal incision was made exposing the stomach. After isolating the esophagus and duodenal junctures a total gastrectomy was performed with 1-2 cm of esophagus remaining attached to the gastrectomy. We included the esophageal juncture to have a common landmark for all fundic isolations. While holding the esophagus with forceps approximately 3 mm of fundus was removed with 5 mm of the intact esophagus.
The removed fundic tissue was placed in ice cold HEPES-buffered Ringer-solution (pH adjusted to 7.4 at 4° C.) and transferred to the stage of a dissection microscope. The fundic glands were visualized under the microscope at 50× magnification. Glands adjacent to the esophageal junction were hand dissected. […]
Using the same protocol that we developed for isolated corpus gland perfusion^20a, 21a individual fundic glands were loaded with a […] of the pH sensitive dye (BCECF, (2′7-bis(2-carbocyethal)-5-(and 6)-carboxyflurorescein-acetomethylester; Molecular Probes, OR USA)) for 15 minutes. […] Acid extrusion was monitored in the absence of bicarbonate. […] Intracellular pH recovery rates (H^+, K^+-ATPase activity) were measured in Na^+ free HEPES solutions containing: 1) 100 μM histamine 2) 100 μM pentagastrin. […]
The recovery rates are expressed as the ΔpHi/min, and were calculated over the pH range of 6.5-6.9.
Activation of acid secretion via histamine, acetylcholine or pentagastrin was induced by preincubation of the glands for 15 min before the experiment combined with BCECF (100 μM) loading. All data are summarized as mean±S.E. Significance was determined using the one-way ANOVA test with p<0.05 considered to be statistically significant. […]

H+,K+-ATPase [2] = biological target: T1, H+,K+-ATPase; assay: Intracellular pH recovery (BCECF, NH4Cl prepulse) in isolated rat gastric glands; assay type: cell-based
Description: Following removal of the stomach, the stomach was opened longitudinally and the corpus and antrum isolated and sliced into 0.5 cm square sections, and washed with cold Ringer solution to remove residual food particles. The tissues were transferred to the stage of a dissecting microscope. Individual glands were isolated using a hand-dissection technique as described previously^36. Following isolation, individual isolated glands were allowed to adhere to cover slips that had been pre-coated with Cell-Tak (Collaborative Research, Bedford, Mass.) and were transferred to the stage of an inverted microscope.
Isolated gastric glands were incubated in a HEPES-buffered Ringer's solution containing either 10 μmol of the pH-sensitive dye BCECF-AM (2′,7′)-bis-(2-carboxyethyl)-5-(and -6)-carboxy-fluorescin, aceto-methyl ester (Molecular Probes, Eugene, Oreg.) for 10 minutes as described previously^37-39. […] A minimum of 8 cells or regions was selected per gland.
Proton extrusion by individual parietal cells was monitored by observing recovery of pHi after acid loading the cells with Na^+ free HEPES solution containing 20 mM NH4C1.
The recovery rates are expressed as the ΔpH/min, and were calculated over the pH range of 6.5-6.8.

[3] = system: histamine induced acid secretion; assay: Oral zinc supplementation in rats, histamine induced proton extrusion of isolated glands; assay type: in vivo, rat
Description: Following dye-loading the chamber was flushed with a HEPES solution to remove all non-de-esterified dye. The perfusion chamber was mounted on the stage of an inverted microscope (Olympus IX50), which was used in the epifluorescence mode with a 40× objective. BCECF was successively excited at 440 nm and 490 nm from a monochromator light source, and the resultant fluorescent signal was monitored at 535 nm using an intensified charge-coupled device camera. Individual regions of interest were outlined and simultaneously monitored every 15 sec. during the course of the experiment. A minimum of 8 cells or regions was selected per gland.
Proton extrusion by individual parietal cells was monitored by observing recovery of pHi after acid loading the cells with Na^+ free HEPES solution containing 20 mM NH4C1. Parietal cells were subsequently superfused with Na^+ free HEPES, which abolished all Na^+/H^+ Exchanger (NHE) activity, trapping H^+ within the cytosol and initiating an immediate drop in pHi. Under these conditions, the only potential H^+ extrusion pathway is via the H^+,K^+-ATPase activation.
The intensity ratio data (490/440) were converted to pH values using the high K^+/nigericin calibration technique^40. Intracellular pH recovery rates were calculated from the same initial starting pH to eliminate the potential variation in the individual intracellular buffering power of the cells under the different experimental conditions. All data including the individual images for all wavelengths were recorded to the hard disk which allowed us to return to the individual images after the experiment for further analysis. The recovery rates are expressed as the ΔpH/min, and were calculated over the pH range of 6.5-6.8. All chemicals were obtained from Sigma and Molecular Probes. All data were summarized as means±SE and were analysed by grouping measurements at baseline values.

H+,K+-ATPase [4] = biological target: H+,K+-ATPase (Homo sapiens, UniProt P20648); conditions: human gastric glands
Protocol: The human tissue was transferred from the OR in a HEPES-buffered Ringer solution. The tissue was stored on ice and immediately the isolated glands were dissected as described above.
Isolated gastric glands were incubated in a HEPES-buffered Ringer's solution containing either 10 μmol of the pH-sensitive dye BCECF-AM (2′,7′)-bis-(2-carboxyethyl)-5-(and -6)-carboxy-fluorescin, aceto-methyl ester (Molecular Probes, Eugene, Oreg.) for 10 minutes as described previously^37-39. Following dye-loading the chamber was flushed with a HEPES solution to remove all non-de-esterified dye. The perfusion chamber was mounted on the stage of an inverted microscope (Olympus IX50), which was used in the epifluorescence mode with a 40× objective. BCECF was successively excited at 440 nm and 490 nm from a monochromator light source, and the resultant fluorescent signal was monitored at 535 nm using an intensified charge-coupled device camera. Individual regions of interest were outlined and simultaneously monitored every 15 sec. during the course of the experiment. A minimum of 8 cells or regions was selected per gland.
Proton extrusion by individual parietal cells was monitored by observing recovery of pHi after acid loading the cells with Na^+ free HEPES solution containing 20 mM NH4C1. Parietal cells were subsequently superfused with Na^+ free HEPES, which abolished all Na^+/H^+ Exchanger (NHE) activity, trapping H^+ within the cytosol and initiating an immediate drop in pHi. […]
The intensity ratio data (490/440) were converted to pH values using the high K^+/nigericin calibration technique^40. Intracellular pH recovery rates were calculated from the same initial starting pH to eliminate the potential variation in the individual intracellular buffering power of the cells under the different experimental conditions. […] The recovery rates are expressed as the ΔpH/min, and were calculated over the pH range of 6.5-6.8. […] All data were summarized as means±SE and were analysed by grouping measurements at baseline values.

[5] = system: gastric acid secretion in freshly isolated rat whole stomach; assay: Whole stomach pH measurements, ex vivo rat whole stomach preparation
Protocol: Before the experiments animals were fasted for 24 h to reduce basal acid secretion to a consistent minimum. Animals were killed with an overdose of isoflurane and an abdominal incision was made. The stomach was ligated at the duodenal and esophageal junction and excised. Then 1 ml of non buffered, isotonic saline (140 mM) was infused into the lumen of the stomach. […] The stomachs were then placed in either oxygenated HEPES-buffered Ringer solution or in the same solution containing 100 μM histamine alone or additionally 300 μM ZnCl2 (pH 7.4) and maintained at 37° C. After 1 hour the stomach contents were aspirated and the pH was recorded.

H+,K+-ATPase (Homo sapiens, UniProt P20648), sequence (P20648 whole entry): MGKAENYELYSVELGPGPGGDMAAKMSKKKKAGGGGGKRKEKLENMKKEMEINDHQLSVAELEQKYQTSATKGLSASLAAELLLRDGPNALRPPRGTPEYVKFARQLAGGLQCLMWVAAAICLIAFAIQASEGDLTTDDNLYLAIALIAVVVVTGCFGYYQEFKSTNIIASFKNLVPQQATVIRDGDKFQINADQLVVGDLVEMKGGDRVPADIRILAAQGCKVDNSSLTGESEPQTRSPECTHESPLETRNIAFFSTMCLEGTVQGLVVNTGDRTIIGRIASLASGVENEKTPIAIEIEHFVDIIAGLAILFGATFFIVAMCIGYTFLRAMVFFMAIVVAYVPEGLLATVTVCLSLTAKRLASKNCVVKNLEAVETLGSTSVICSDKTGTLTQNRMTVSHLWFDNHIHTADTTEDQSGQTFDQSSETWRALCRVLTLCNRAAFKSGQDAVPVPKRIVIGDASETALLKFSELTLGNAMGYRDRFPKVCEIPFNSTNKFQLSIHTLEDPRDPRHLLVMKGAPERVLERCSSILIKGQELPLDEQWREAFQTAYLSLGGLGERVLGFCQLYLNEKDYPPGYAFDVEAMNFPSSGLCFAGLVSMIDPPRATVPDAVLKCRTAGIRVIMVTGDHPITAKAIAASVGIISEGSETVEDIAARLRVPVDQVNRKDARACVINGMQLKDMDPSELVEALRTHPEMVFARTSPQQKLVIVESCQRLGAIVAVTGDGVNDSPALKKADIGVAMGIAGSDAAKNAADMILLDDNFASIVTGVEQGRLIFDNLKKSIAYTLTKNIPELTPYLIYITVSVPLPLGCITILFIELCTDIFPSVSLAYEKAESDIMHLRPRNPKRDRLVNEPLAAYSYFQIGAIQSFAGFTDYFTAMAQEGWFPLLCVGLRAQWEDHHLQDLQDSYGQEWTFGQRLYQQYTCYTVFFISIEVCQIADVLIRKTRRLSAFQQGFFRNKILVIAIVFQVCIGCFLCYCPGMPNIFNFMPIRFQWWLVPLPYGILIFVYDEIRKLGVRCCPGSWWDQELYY
H+,K+-ATPase (Homo sapiens, UniProt P20648), sequence (P51164 whole entry partner): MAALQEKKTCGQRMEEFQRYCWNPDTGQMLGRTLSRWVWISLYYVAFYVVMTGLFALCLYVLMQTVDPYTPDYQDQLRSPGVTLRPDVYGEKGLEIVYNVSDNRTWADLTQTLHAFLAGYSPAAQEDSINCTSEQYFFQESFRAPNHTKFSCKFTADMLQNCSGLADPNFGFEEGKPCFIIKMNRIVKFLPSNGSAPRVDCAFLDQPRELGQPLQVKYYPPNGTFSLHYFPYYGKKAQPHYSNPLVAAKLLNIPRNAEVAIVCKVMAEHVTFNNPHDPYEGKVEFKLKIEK
T1 sequence (P09626 whole entry): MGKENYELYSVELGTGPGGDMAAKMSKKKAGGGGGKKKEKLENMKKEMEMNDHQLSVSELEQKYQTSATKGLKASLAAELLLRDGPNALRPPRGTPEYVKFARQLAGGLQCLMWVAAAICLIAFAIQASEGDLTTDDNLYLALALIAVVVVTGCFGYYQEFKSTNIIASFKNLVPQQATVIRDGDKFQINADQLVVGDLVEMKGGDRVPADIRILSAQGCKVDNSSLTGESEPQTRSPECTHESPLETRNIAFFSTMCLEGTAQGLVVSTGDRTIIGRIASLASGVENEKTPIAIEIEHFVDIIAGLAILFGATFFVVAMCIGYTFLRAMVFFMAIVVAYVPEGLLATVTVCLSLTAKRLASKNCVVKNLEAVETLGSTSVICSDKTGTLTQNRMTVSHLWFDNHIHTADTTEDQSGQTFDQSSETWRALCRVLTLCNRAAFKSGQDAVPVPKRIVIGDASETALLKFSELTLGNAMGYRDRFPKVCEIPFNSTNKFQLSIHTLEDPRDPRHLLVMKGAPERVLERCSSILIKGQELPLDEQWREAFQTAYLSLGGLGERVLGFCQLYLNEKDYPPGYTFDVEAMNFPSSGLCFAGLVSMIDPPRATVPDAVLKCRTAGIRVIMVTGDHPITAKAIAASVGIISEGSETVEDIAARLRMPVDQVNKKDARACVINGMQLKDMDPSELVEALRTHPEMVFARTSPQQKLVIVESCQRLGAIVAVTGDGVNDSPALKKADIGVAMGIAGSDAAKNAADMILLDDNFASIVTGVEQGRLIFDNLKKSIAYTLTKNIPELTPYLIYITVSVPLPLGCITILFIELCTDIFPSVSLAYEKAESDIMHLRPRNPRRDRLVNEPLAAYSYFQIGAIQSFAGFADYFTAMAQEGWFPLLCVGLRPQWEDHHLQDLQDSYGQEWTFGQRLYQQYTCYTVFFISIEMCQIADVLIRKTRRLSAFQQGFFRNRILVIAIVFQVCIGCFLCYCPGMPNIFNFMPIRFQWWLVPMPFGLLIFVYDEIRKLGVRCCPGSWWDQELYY
T1 sequence (P18598 whole entry partner): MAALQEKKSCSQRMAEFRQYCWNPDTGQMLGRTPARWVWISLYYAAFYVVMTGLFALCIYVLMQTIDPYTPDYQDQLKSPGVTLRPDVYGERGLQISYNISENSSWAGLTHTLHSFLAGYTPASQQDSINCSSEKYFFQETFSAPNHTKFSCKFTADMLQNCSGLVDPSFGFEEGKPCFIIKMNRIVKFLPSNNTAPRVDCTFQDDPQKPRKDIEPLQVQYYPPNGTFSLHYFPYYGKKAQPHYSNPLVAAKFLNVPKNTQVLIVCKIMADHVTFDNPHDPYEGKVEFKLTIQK
T2 sequence (P09626 whole entry): as the sequence (P09626 whole entry) above
T2 sequence (P18598 whole entry partner): as the sequence (P18598 whole entry partner) above

Row | Structure (SMILES) | effect on corpus acid secretion (in words) (H+,K+-ATPase [1]) | effect on fundic (F1) acid secretion (in words) (fundic H+,K+-ATPase) | inhibition of proton extrusion (H+,K+-ATPase [2]; 300 μM ZnCl2, compared to the histamine (100 μM) induced rate) | onset of inhibition of histamine induced acid secretion (H+,K+-ATPase [2]; ZnCl2 300 μM added to superfusion bath during alkalinization, histamine 100 μM) | reversibility of inhibition after removal of ZnCl2 (H+,K+-ATPase [2]; ZnCl2 300 μM, histamine 100 μM) | effect on histamine induced acid secretion (in words) (H+,K+-ATPase [2]; rat gastric glands, histamine 100 μM, ZnCl2 25-300 μM) | histamine induced proton extrusion rate after oral ZnCl2 ([3]; 0.05 mg/kg/d ZnCl2 in drinking water for 5 days) | histamine induced proton extrusion rate after oral ZnCl2 ([3]; 150 mg/kg/d ZnCl2 in drinking water for 5 days) | effect on histamine stimulated proton efflux (in words) (H+,K+-ATPase [4]; histamine 100 μM, ZnCl2 300 μM) | luminal pH ([5]; 100 μM histamine and 300 μM ZnCl2, 1 hour) | luminal pH compared with histamine alone (in words) ([5]; 100 μmol histamine and 300 μmol ZnCl2) | recovery rate (proton extrusion) of histamine stimulated parietal cells ([3]; control group with histamine alone, no ZnCl2) | proton efflux under histamine stimulation (in words) (H+,K+-ATPase [4]; histamine alone) | F1 gland alkalinization rate (fundic H+,K+-ATPase; 100 μM secretagogue alone)
1 | Cc1cccc(C)c1CNc1cc(C(=O)NCCO)cn2c(C)c(C)nc12 [AZD0865] | effectively inhibits acid secretion | does not completely inhibit proton extrusion | – | – | – | – | – | – | – | – | – | – | – | –
2 | [Cl-].[Cl-].[Zn+2] [ZnCl2, zinc chloride] | – | – | 98% | a few seconds | increase of the intracellular pH continued; also recorded: returns to normal levels | blocked; also recorded: dose dependent manner | 0.034±0.0036 ΔpH/min | 0.022±0.0045 ΔpH/min | blocked; also recorded: abolished | 4.54±0.065 | higher pH | – | – | –
3 | NCCc1c[nH]cn1 [histamine] | – | no effect | – | – | – | – | – | – | – | – | – | 0.051±0.004 ΔpH/min | robust proton efflux | 0.042±0.007 ΔpHi/min and 0.040±0.0079 ΔpHi/min
